From patent US6403639B1, “2,3-dihydrobenzofuran derivatives” (Chugai Seiyaku Kabushiki Kaisha, priority 1997, dated 2002) come the findings set out here.

For one experiment, the system named is cultured mesangial cells. Put plainly: Protective effect against cell injury of cultured mesangial cells, oxidized LDL-induced LDH leakage. Type of experiment: cell-based, rats. The procedure:
For the purpose of evaluating in vitro cytoprotective effect of the compounds of the present invention, protective effect against cell injury of cultured mesangial cells induced by oxidized low-density lipoprotein (LDL) was examined. The cells used were subcultures after 4 to 6 passages of the primary cultures of mesangial cells prepared from kidney of 4-week-old SD-strain male rats (Nippon Charles River Corp.).
The oxidized LDL was prepared by placing 1 mg/ml of rabbit LDL in PBS (−) in the presence of 10 μM CuSO4 at 37° C. for 24 hours. Cell cultures were prepared by inoculating 2.5×10^4 cells/250 μl/well on a 48-well plate using RPMI1640 medium containing 20% FBS. Immediately before addition of test compounds, the medium was replaced with RPMI1640 free from FBS. Test compounds were dissolved or suspended in ethanol and added at 1.25 μl/well 16 hours before or immediately before addition of the oxidized LDL to a concentration of 1, 3 or 10 μM in each well. Unlike Test example 1, the oxidized LDL was not diluted with physiological saline and added to cells at 25 μl/well to a concentration of 91 μg/ml and the cells were incubated for 8 hours after addition of the oxidized LDL. After the incubation, 150 μl of the culture medium was collected from each of the wells and measured for the lactate dehydrogenase activity (Lactate Dehydrogenase (LD-L): SIGMA DIAGNOSTICS) which has leaked in the culture medium.
(§1) The cytoprotective effect was expressed as a % cytoprotection where the effect in wells containing the oxidized LDL but without any test compound is 0% and the effect in wells containing physiological saline in place of the oxidized LDL is 100%.
(In general: LDH leaks from cells whose membrane has failed.)

Experiment [1] has as its system porcine kidney-derived LLC-PK1 cells. Put plainly: Protective effect against cell injury of porcine kidney-derived LLC-PK1 cells (2), oxidized LDL-induced LDH leakage. The class given is cell-based. The procedure: The oxidized LDL was prepared by placing 1 mg/ml of rabbit LDL in PBS (−) in the presence of 10 μM CuSO4 at 37° C. for 24 hours. Cell cultures were prepared by inoculating 1.25×10^4 cells/250 μl/well on a 48-well plate using M199 medium containing 3% FBS. Test compounds were dissolved or suspended in ethanol and added at a ratio of 1.25 μl/well 16 hours before or immediately before addition of the oxidized LDL to a concentration of 0.1, 1 or 10 μM in each well. The oxidized LDL was diluted twice with physiological saline and then added to cells at 62.5 μl/well to a concentration of 100 μg/ml and the cells were incubated for 6 hours after addition of the oxidized LDL. After the incubation, 162.5 μl of the culture medium was collected from each of the wells and measured for the lactate dehydrogenase (LDH) activity (Lactate Dehydrogenase (LD-L): SIGNA DIAGNOSTICS) which has leaked into the culture medium.
as §1
For the purpose of evaluating in vitro cytoprotective effect of the compounds of the present invention, protective effect against cell injury of porcine kidney-derived LLC-PK1 cells (ATCC-CRL-13921) induced by oxidized low-density lipoprotein (oxidized LDL) was examined in the same manner as in Test example 1.
Preparation of oxidized LDL and conditions for cell culture and addition of test compounds were the same as those in Test example 1, except that the oxidized LDL was not diluted with physiological saline and added to cells at 25 μl/well to a concentration of 91 μg/ml and the cells were incubated for 6 hours after addition of oxidized LDL. After the incubation, 150 μl of the culture medium was collected from each of the wells and measured for the lactate dehydrogenase (LDH) activity (Lactate Dehydrogenase (LD-L): SIGMA DIAGNOSTICS) which has leaked in the culture medium.

[2] abbreviates: Rattus norvegicus, Mesangial cell; 1 μM; test compounds added 16 hours before addition of oxidized LDL; oxidized LDL 91 μg/ml, 8 hours; read-out: % cytoprotection 1).
[3] abbreviates: Rattus norvegicus, Mesangial cell; 1 μM; test compounds added immediately before addition of oxidized LDL; oxidized LDL 91 μg/ml, 8 hours; read-out: % cytoprotection 2).
Where [4] appears, read: Rattus norvegicus, Mesangial cell; 3 μM; test compounds added 16 hours before addition of oxidized LDL; oxidized LDL 91 μg/ml, 8 hours; read-out: % cytoprotection 1).
Where [5] appears, read: Rattus norvegicus, Mesangial cell; 3 μM; test compounds added immediately before addition of oxidized LDL; oxidized LDL 91 μg/ml, 8 hours; read-out: % cytoprotection 2).
Where [6] appears, read: Sus scrofa, LLC-PK1; 0.1 μM; test compounds added 16 hours before addition of oxidized LDL; oxidized LDL 91 μg/ml, 6 hours; read-out: % cytoprotection 1).
Setting [7] is: Sus scrofa, LLC-PK1; 0.1 μM; test compounds added immediately before addition of oxidized LDL; oxidized LDL 91 μg/ml, 6 hours; read-out: % cytoprotection 2).
[8] abbreviates: Sus scrofa, LLC-PK1; 1 μM; test compounds added 16 hours before addition of oxidized LDL; oxidized LDL 91 μg/ml, 6 hours; read-out: % cytoprotection 1).
The mark [9] stands for this setting: Sus scrofa, LLC-PK1; 1 μM; test compounds added immediately before addition of oxidized LDL; oxidized LDL 91 μg/ml, 6 hours; read-out: % cytoprotection 2).
The mark [10] stands for this setting: Sus scrofa, LLC-PK1; 10 μM; test compounds added 16 hours before addition of oxidized LDL; oxidized LDL 91 μg/ml, 6 hours; read-out: % cytoprotection 1).
Setting [11] is: Sus scrofa, LLC-PK1; 10 μM; test compounds added immediately before addition of oxidized LDL; oxidized LDL 91 μg/ml, 6 hours; read-out: % cytoprotection 2).

Like-named read-outs stand apart in the source and are kept apart here.

For the compound `CC1(C)Cc2c(c(C(C)(C)C)cc(O)c2C(C)(C)C)O1` [Example 4, 4,7-Di-t-butyl-5-hydroxy-2,2-dimethyl-2,3-dihydrobenzofuran], the inhibition at 1 µM with cultured mesangial cells (setting [2]) stood at 31.1 ± 5.4%; with cultured mesangial cells (setting [3]), 32.5 ± 1.9%; in experiment [1] (setting [8]) it was 100%; in experiment [1] (setting [9]) it was 99%. The inhibition at 3 µM turned out to be 66.4 ± 5.9% in the experiment on cultured mesangial cells (setting [4]) and 54.3 ± 9.7% with cultured mesangial cells (setting [5]). Moreover, the inhibition at 0.1 µM in experiment [1] (setting [6]) was 11.3%; in experiment [1] (setting [7]) it was 14.4%. Further, the inhibition at 10 µM in experiment [1] (setting [10]) amounted to 98.3%; in experiment [1] (setting [11]), 99.8%.
Take `CC(C)c1cc2c(c(C(C)C)c1O)CC(C)(C)O2` [Example 18, 5-Hydroxy-2,2-dimethyl-4,6-diisopropyl-2,3-dihydrobenzofuran]: the inhibition at 0.1 µM was 12.1% in experiment [1] (setting [6]) and -1.9% in experiment [1] (setting [7]). Also, the inhibition at 1 µM in experiment [1] (setting [8]) amounted to 100%; in experiment [1] (setting [9]) it was 99.7%. For the same compound, the inhibition at 10 µM in experiment [1] (setting [10]) was determined as 100%; in experiment [1] (setting [11]) it was 101%.
Regarding `CC1Cc2cc(O)c(C(C)(C)C)cc2O1` (stereo not drawn) [Example 16, 6-t-Butyl-5-hydroxy-2-methyl-2,3-dihydrobenzofuran], the inhibition at 1 µM amounted to 50.6 ± 5.9% in the experiment on cultured mesangial cells (setting [2]), 18.7 ± 1.3% in the experiment with cultured mesangial cells (setting [3]), 99.7% in experiment [1] (setting [8]) and 90.8% in experiment [1] (setting [9]). Moreover, the values for the inhibition at 3 µM with cultured mesangial cells (setting [4]) and in the experiment with cultured mesangial cells (setting [5]) were 45.3 ± 9.4% and 28.3 ± 6.2%, respectively. Moreover, the inhibition at 0.1 µM in experiment [1] (setting [6]) worked out at 12.7%; in experiment [1] (setting [7]) it was 7.6%. The inhibition at 10 µM in experiment [1] (setting [10]) and in experiment [1] (setting [11]) was 103% in each case.
For the compound `CCC1(CC)Cc2c(cc(C(C)C)c(O)c2C(C)C)O1` [Example 17, 2,2-Diethyl-5-hydroxy-4,6-diisopropyl-2,3-dihydrobenzofuran], the figures for the inhibition at 0.1 µM in experiment [1] (setting [6]) and in experiment [1] (setting [7]) were 40.5% and 22.1%, respectively. The figures for the inhibition at 1 µM in experiment [1] (setting [8]) and in experiment [1] (setting [9]) were 99.9% and 101%, respectively. In addition, the values for the inhibition at 10 µM in experiment [1] (setting [10]) and in experiment [1] (setting [11]) were 99.9% and 98.4%, respectively.
Regarding `CC(C)c1c(O)c(C(C)(C)C)cc2c1CC(C)(C)O2` [Example 20-(1), 6-t-Butyl-5-hydroxy-2,2-dimethyl-4-isopropyl-2,3-dihydrobenzofuran], the inhibition at 0.1 µM in experiment [1] (setting [6]) was -4.8%; in experiment [1] (setting [7]) it was -24%. Besides, the inhibition at 1 µM in experiment [1] (setting [8]) and in experiment [1] (setting [9]) was 100% in each case. In addition, the inhibition at 10 µM in experiment [1] (setting [10]) was 104%; in experiment [1] (setting [11]), 100%.
On to `CC(C)c1cc2c(c(C(C)(C)C)c1O)CC(C)(C)O2` [Example 20-(2), 4-t-Butyl-5-hydroxy-2,2-dimethyl-6-isopropyl-2,3-dihydrobenzofuran], for which the inhibition at 0.1 µM in experiment [1] (setting [6]) came to 95.3%; in experiment [1] (setting [7]), 61.9%. Moreover, the inhibition at 1 µM in experiment [1] (setting [8]) is 98.1%; in experiment [1] (setting [9]), 97.8%. The inhibition at 10 µM in experiment [1] (setting [10]) came out at 97.3%; in experiment [1] (setting [11]) it was 99.1%.
Turning to `Cc1c(O)c(C(C)(C)C)cc2c1CC(C)(C)O2` [Example 19, 6-t-Butyl-5-hydroxy-2,2,4-trimethyl-2,3-dihydrobenzofuran], the inhibition at 0.1 µM in experiment [1] (setting [6]) is 31.1%; in experiment [1] (setting [7]) it was 13.2%. Further, the inhibition at 1 µM stood at 104% in experiment [1] (setting [8]) and 102% in experiment [1] (setting [9]). Besides, the inhibition at 10 µM in experiment [1] (setting [10]) and in experiment [1] (setting [11]) was 102% each time.
As for `CC(C)(C)c1cc2c(cc1O)CCO2` [Example 15, 6-t-Butyl-5-hydroxy-2,3-dihydrobenzofuran], the figures for the inhibition at 1 µM in the experiment with cultured mesangial cells (setting [2]) and in the experiment on cultured mesangial cells (setting [3]) were -4 ± 3.5% and -14.6 ± 3.3%, respectively. In addition, the inhibition at 3 µM in the experiment on cultured mesangial cells (setting [4]) is 33.6 ± 11.5%; in the experiment with cultured mesangial cells (setting [5]), 5.4 ± 5.1%.
